Source: patent US20230117592A1 (SRI International, priority 2019, published 2023)

Legend:
[1] = biological target: T1, 5-LOX (Homo sapiens, UniProt P09917); experiment: 5-LOX fluorescent assay (in vitro lipoxygenase inhibition); format: biochemical; conditions: recombinant 5-LOX cell lysate, 20 μM AA, DHR123 fluorescence; several values in a cell = repeat determinations; read-out: IC50 (μM) values for in vitro lipoxygenase inhibition, 5-LOX
T1 sequence (P09917 1-674): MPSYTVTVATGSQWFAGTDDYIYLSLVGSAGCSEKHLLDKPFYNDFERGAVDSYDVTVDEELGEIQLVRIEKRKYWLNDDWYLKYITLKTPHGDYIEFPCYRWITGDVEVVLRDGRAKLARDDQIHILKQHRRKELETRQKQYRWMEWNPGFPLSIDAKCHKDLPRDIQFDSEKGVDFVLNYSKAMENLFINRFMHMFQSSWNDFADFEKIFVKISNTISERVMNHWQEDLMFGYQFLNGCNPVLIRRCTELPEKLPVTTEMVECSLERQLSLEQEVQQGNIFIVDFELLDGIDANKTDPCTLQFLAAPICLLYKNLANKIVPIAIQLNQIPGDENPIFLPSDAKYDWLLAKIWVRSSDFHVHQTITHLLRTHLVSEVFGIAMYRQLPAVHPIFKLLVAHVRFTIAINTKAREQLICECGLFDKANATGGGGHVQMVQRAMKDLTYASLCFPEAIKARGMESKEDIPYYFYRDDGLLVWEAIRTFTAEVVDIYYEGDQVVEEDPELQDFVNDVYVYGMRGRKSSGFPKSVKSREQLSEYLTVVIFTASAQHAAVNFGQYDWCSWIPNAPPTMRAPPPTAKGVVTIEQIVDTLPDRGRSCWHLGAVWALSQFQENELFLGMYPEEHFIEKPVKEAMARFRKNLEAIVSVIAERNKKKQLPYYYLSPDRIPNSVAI
Summary of the method: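 Recombinant human 5-LOX cell lysate pre-incubated 15 min with inhibitor in 50 mM Tris pH 7.5, 0.1 mM EDTA, 0.3 mM CaCl2. Reaction started with 20 μM arachidonic acid plus 100 μM ATP, with 1 μM DHR123 as fluorescent probe. IC50 from percent inhibition per dose via 4-parameter logistic or sigmoidal dose-response fit.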

[2] = biological target: T2, 12-LOX (Homo sapiens, UniProt P18054); experiment: 12-LOX fluorescent assay (in vitro lipoxygenase inhibition); format: biochemical; conditions: 100 nM recombinant 12-LOX, 20 μM AA, DHR123 fluorescence; several values in a cell = repeat determinations; read-out: IC50 (μM) values for in vitro lipoxygenase inhibition, 12-LOX
T2 sequence (P18054 1-663): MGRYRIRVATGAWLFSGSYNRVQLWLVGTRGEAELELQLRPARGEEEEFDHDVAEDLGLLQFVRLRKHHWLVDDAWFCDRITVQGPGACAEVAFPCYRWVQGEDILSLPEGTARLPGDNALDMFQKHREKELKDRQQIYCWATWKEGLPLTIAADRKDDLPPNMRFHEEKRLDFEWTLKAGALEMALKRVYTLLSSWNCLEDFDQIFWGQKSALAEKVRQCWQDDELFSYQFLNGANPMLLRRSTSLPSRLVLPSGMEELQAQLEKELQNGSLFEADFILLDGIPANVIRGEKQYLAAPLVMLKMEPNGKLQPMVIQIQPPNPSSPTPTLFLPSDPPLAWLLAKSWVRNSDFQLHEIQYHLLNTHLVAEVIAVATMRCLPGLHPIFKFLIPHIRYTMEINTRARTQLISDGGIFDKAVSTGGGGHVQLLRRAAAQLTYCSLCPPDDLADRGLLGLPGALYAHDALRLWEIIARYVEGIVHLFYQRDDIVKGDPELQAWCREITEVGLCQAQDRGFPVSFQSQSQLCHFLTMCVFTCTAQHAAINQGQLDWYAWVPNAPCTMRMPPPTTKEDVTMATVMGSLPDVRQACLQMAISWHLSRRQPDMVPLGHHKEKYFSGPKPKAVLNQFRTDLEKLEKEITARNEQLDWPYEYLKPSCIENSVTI
Summary of the method: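 Fluorescent assay in 50 mM Tris pH 7.5, 0.05% Tween-20, with 100 nM recombinant 12-LOX preincubated 15 min with inhibitor. Reaction was started with 20 μM arachidonic acid substrate and 1 μM DHR123. Percent inhibition per dose was fitted by 4-parameter logistic or sigmoidal dose-response for IC50.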

For `Cc1cc(Nc2ccc(Cl)c(F)c2)ccc1NCC1(Cn2ccnc2)COC1` [SS20308-0328-01, N^1-((3-((1H-imidazol-1-yl)methyl)oxetan-3-yl)methyl)-N^4-(4-chloro-3-fluorophenyl)-2-methylbenzene-1,4-diamine], the IC50 [1] was 0.04 µM and the IC50 [2] was 0.03 µM.
